Assays:
Type in all cases: biochemical
PDK1 = target: T1, PDK1 (Homo sapiens, UniProt O15530); experiment: PDK1 kinase assay (33P peptide phosphorylation); details: 0.01 mM ATP, 60 min at 30° C.; read-out: PDK-1 IC50
T1 sequence (O15530 1-556): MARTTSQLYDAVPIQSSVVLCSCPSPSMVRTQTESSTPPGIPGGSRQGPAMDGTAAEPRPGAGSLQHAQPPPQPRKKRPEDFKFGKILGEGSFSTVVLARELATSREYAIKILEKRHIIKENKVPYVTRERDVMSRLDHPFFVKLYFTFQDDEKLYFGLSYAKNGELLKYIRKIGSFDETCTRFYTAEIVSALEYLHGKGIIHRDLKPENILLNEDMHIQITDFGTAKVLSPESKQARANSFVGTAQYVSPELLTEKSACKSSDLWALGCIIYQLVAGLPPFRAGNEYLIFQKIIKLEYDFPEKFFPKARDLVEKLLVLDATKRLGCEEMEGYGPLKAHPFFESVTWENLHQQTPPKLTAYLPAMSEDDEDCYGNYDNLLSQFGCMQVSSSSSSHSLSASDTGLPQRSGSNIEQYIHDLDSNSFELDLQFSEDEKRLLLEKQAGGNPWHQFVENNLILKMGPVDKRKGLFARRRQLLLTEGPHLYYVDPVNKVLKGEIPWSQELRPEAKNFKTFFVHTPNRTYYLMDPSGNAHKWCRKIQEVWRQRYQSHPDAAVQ

PKA = target: T2, PKA (Homo sapiens, UniProt P17612); experiment: PKA kinase assay (Kemptide substrate); details: 100 μM ATP
T2 construct: purchased Upstate

[1] = target: CDK-2 enzyme, complexed with cyclin A (Homo sapiens, UniProt P24941); experiment: CDK2 kinase assay (33P peptide phosphorylation); details: 0.1 mM ATP, cyclin A complex
FGFR1 = FGFR1 (Homo sapiens, UniProt P11362); experiment: Kinase selectivity screening (example 14)
FGFR2 = FGFR2 (Homo sapiens, UniProt P21802); experiment: Kinase selectivity screening (example 14)
FGFR3 = FGFR3 (Homo sapiens, UniProt P22607); experiment: Kinase selectivity screening (example 14)
Flt1 = Flt1 (Homo sapiens, UniProt P17948); experiment: Kinase selectivity screening (example 14)
IGF-IR = IGF-IR (Homo sapiens, UniProt P08069); experiment: Kinase selectivity screening (example 14)
ITK = target: T3, ITK (Homo sapiens, UniProt Q08881); experiment: Kinase selectivity screening (example 14)
T3 sequence (Q08881 1-620): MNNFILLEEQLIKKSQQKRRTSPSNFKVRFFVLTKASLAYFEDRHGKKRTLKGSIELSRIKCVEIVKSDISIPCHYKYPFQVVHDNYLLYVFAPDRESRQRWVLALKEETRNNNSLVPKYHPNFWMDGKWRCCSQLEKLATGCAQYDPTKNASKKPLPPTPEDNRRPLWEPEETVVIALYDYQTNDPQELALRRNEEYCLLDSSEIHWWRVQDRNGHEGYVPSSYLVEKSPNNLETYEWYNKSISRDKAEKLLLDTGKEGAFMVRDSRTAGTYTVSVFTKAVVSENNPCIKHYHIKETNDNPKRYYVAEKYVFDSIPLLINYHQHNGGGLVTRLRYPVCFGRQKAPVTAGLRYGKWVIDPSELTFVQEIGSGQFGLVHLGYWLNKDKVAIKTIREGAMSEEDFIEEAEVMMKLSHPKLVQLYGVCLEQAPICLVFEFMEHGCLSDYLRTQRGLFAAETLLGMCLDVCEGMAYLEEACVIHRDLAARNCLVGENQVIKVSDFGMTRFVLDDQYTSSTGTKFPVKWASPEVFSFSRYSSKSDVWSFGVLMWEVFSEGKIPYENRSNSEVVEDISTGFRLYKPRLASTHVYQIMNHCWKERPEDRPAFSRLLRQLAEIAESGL

KDR = KDR (Homo sapiens, UniProt P35968); experiment: Kinase selectivity screening (example 14)
Syk = Syk (Homo sapiens, UniProt P43405); experiment: Kinase selectivity screening (example 14)
Tie2 = Tie2 (Homo sapiens, UniProt Q02763); experiment: Kinase selectivity screening (example 14)

FGFR1, sequence (P11362 22-822, species assumed): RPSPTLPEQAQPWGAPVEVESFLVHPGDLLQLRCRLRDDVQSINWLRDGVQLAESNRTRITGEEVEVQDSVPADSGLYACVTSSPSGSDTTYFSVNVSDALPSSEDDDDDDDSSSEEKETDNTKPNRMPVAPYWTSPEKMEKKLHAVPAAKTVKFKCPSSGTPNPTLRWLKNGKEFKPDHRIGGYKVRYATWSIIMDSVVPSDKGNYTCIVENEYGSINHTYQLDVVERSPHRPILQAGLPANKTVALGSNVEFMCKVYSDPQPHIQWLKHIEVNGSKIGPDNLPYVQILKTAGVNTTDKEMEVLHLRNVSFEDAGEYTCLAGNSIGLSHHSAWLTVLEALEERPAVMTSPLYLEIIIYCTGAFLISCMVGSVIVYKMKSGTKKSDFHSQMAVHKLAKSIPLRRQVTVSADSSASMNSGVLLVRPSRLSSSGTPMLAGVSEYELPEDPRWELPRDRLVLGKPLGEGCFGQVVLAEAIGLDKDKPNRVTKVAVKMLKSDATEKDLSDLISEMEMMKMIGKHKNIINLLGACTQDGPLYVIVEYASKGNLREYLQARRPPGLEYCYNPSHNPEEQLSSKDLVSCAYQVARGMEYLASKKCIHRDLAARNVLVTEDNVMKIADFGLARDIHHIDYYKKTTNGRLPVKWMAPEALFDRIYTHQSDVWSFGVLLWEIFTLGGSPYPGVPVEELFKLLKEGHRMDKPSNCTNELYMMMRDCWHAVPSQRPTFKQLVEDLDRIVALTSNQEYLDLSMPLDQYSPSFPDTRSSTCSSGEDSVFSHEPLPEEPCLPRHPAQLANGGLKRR
FGFR2, sequence (P21802 22-821, species assumed): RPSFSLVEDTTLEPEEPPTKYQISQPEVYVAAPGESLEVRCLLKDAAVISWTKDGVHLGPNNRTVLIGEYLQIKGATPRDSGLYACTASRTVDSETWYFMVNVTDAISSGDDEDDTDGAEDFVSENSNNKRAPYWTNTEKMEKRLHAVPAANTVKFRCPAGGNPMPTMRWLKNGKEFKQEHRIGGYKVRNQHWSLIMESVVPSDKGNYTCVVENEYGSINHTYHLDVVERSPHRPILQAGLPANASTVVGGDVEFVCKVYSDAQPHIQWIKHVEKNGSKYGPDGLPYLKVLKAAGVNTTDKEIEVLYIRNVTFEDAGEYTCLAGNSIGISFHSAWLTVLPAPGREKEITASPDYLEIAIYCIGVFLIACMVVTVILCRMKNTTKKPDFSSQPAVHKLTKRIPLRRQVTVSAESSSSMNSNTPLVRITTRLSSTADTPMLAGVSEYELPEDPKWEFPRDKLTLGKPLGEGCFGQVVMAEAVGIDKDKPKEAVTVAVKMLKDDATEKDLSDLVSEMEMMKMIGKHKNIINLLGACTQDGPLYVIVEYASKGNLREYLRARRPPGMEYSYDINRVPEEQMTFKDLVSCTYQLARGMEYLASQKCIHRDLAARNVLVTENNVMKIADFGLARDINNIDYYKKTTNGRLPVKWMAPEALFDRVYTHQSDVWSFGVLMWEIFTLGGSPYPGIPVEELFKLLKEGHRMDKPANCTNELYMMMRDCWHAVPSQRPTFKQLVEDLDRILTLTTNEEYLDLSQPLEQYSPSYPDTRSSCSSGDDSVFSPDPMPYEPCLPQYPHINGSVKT
FGFR3, sequence (P22607 23-806, species assumed): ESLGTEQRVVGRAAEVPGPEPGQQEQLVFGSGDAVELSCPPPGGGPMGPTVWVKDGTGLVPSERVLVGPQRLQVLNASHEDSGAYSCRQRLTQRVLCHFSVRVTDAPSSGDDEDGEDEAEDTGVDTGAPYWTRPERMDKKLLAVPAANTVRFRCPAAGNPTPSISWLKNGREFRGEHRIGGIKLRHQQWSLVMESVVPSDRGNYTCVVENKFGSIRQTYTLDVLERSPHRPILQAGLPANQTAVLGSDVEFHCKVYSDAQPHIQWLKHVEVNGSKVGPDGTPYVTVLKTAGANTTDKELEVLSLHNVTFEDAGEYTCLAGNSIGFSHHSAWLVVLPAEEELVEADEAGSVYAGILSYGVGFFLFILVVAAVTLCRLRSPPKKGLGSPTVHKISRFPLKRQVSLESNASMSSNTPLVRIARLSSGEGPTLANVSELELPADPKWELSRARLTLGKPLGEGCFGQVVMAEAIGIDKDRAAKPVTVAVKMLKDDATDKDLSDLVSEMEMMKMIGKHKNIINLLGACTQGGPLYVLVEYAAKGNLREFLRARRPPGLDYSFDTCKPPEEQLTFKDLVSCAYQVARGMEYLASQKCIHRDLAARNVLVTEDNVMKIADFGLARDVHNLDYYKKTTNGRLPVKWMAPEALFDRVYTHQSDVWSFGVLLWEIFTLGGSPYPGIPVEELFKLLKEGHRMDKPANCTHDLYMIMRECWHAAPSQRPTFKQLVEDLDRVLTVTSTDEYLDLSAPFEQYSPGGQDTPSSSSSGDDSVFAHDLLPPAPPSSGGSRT
Flt1, sequence (P17948 27-1338, species assumed): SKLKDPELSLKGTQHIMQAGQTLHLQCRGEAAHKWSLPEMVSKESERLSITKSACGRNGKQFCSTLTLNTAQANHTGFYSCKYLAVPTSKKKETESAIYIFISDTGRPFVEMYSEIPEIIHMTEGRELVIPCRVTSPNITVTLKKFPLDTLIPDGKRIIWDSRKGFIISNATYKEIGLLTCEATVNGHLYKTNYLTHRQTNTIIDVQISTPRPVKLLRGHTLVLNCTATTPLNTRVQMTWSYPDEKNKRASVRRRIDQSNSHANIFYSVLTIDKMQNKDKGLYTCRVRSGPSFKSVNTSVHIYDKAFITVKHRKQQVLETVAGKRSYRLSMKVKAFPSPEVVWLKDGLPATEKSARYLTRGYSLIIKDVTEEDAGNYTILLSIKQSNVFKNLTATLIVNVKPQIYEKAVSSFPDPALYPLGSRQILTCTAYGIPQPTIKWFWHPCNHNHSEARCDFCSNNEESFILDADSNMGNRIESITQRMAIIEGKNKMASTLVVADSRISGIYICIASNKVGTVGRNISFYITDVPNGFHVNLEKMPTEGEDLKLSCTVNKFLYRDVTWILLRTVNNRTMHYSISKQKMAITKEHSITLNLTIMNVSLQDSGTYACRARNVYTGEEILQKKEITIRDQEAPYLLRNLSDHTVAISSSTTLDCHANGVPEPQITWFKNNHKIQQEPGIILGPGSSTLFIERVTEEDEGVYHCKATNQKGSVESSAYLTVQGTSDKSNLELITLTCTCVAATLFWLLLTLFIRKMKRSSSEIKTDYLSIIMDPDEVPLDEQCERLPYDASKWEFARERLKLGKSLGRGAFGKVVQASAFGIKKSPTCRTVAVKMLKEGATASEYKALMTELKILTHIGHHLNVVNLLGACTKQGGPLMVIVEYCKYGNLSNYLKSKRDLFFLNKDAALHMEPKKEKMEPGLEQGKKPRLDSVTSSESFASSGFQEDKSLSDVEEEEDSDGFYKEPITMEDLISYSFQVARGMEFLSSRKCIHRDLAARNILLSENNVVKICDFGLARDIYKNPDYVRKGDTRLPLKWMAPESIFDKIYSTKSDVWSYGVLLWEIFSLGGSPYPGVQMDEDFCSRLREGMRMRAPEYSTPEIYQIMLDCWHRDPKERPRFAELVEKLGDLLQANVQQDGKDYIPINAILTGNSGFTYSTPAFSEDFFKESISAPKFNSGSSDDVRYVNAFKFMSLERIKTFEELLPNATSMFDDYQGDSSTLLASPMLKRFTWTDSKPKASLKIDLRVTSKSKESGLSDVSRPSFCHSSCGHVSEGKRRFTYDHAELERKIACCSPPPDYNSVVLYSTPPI
KDR, sequence (P35968 20-1356, species assumed): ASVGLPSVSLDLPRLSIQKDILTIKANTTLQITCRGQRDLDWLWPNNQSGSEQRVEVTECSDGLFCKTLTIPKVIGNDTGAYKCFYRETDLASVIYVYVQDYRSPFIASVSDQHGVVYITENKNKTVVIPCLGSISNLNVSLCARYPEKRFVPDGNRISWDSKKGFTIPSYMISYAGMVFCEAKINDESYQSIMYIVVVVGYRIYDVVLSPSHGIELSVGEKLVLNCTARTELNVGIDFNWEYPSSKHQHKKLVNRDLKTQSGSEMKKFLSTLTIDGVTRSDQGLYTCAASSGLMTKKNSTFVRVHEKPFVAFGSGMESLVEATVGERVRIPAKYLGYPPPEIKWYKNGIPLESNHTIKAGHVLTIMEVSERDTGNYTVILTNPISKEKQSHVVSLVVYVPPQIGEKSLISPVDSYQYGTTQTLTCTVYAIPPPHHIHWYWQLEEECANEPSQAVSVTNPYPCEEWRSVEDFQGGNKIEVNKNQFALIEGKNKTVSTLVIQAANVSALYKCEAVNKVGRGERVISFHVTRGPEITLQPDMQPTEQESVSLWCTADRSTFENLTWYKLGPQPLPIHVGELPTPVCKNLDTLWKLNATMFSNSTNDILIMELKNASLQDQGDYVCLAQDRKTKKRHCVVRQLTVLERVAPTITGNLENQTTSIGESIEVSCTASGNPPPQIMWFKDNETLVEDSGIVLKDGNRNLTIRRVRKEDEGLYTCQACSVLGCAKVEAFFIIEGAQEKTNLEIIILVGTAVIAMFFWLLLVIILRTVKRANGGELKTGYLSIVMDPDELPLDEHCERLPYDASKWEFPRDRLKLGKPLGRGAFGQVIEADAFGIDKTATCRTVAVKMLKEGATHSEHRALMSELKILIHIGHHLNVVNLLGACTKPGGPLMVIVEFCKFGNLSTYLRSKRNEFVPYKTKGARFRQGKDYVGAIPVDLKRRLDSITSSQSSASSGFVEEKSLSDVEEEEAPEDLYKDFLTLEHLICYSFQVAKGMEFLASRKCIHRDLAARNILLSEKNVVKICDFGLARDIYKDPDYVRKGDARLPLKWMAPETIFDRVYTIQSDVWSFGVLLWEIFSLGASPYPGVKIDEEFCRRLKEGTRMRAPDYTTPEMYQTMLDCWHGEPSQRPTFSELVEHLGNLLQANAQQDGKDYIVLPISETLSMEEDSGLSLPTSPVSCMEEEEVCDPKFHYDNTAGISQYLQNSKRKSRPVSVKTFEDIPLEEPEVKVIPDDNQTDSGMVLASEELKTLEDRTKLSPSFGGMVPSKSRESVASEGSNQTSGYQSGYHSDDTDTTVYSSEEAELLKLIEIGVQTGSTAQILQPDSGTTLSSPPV

For `Cc1[nH]nc(-c2nc3cc4cn[nH]c4cc3[nH]2)c1C(=O)NC1CCNCC1` [Example 14], the IC50 (PDK1) was 0.01 µM, the IC50 (PKA) was 7.2 µM and the IC50 [1] was 5.11 µM. For the same compound, the “selectivity versus FGFR1” value (FGFR1) was > 20 fold, the “selectivity versus FGFR2” value (FGFR2) was > 20 fold and the “selectivity versus FGFR3” value (FGFR3) was > 20 fold. For the same compound, the “selectivity versus Flt1” value (Flt1) was > 20 fold, the “selectivity versus IGF-IR” value (IGF-IR) was > 20 fold and the “selectivity versus ITK” value (ITK) was > 20 fold. The “selectivity versus KDR” value (KDR) was > 20 fold, the “selectivity versus Syk” value (Syk) was > 20 fold and the “selectivity versus Tie2” value (Tie2) was > 20 fold.

Source: patent US20090131470A1, “PYRAZOLE-SUBSTITUTED BENZIMIDAZOLE DERIVATIVES FOR USE IN THE TREATMENT OF CANCER AND AUTOIMMUNE DISORDERS” (priority 2005, published 2009)
